Experimental data published in patent US20070219180A1, “Muscle Relaxtion Accelerator and Therapeutic Agent for Muscular Tissue Diseases Such as Muscle Relaxation Failure” (priority 2004, published 2007).

Target: T1, troponin I and the actin-tropomyosin complex (Homo sapiens, UniProt P19429)
T1 construct: human myocardium-derived troponin I with a molecular weight of 24 kDa; purchased Calbiochem Inc (troponin I); Abcam PLC (troponin C); SIGMA (actin, tropomyosin); host or cells: troponin I from human myocardium
Experiment: Experiments 6 and 7: affinity of troponin I and the actin-tropomyosin complex (co-precipitation at defined Ca concentration)
Format: binding
Protocol: A solution of 0.4 μg of troponin I (Calbiochem Inc) and 0.54 μg of troponin C (Abcam PLC) was added to 23 μl of distilled water, distributed to 4 test tubes, and centrifuged at 100,000 g for 1 hour (HITACHI Himac 120FC), and 20 μl of the resulting supernatant was collected and stored at 4° C. Then, 50 μl of 600 mM KCl solution, 50 μl of 200 mM MOPS (3-morpholinopropanesulfonic acid) [3-N (morpholino) propanesulfonic acid] (DOJINDO) solution, 50 μl of 20 mM MgCl2 solution, 5 μl of 10 mg/ml pepstatin A (SIGMA) solution, and 50 μl of 150 mM 2-mercaptoethanol (SIGMA) were added as a reaction solution to 99.4 μl of distilled water, and distributed to another 4 test tubes. Next, 3.2 μl of 1 mg/ml actin (SIGMA) and 2.4 μl of 1 mg/ml tropomyosin (SIGMA) were added and mixed, and the mixture was then centrifuged at 2000 g for 5 minutes at 25° C. using a centrifuge (HITACHI Himac CF7D2). The resulting supernatant was put into 4 new test tubes, 50 μl of 50 mM ATP (adenosine 5′-triphosphate) solution was added, and the solution was incubated at 25° C. with mixing for 30 minutes.
Next, 20 μl of the 100,000 g supernatant of troponin I and troponin C which was previously prepared was added to each test tube, and incubated at 25° C. with mixing for 30 minutes. Distilled water alone or 50 μl of a test solution in which the final concentration of the compound was adjusted to 10^−7, 10^−6 and 10^−5 M was added, and the resulting solution was incubated at 25° C. with mixing for 30 minutes.
[…] The solution was incubated at 25° C. with intermittent mixing for 60 minutes, and then centrifuged at 100,000 g for 120 minutes at 25° C. using a centrifuge (HITACHI Himac 120FC: brand name).
After centrifugation, the supernatant was removed, 1 ml of the reaction liquid (excluding Ca^2+ and the drug) was gently added so as not to suspend any precipitate, and the precipitate was again removed by suction; the procedure was repeated twice and the precipitate washed 3 times in total.
The washing solution was removed completely, 20 μl of a sample buffer for polyacrylamide gel electrophoresis (SDS-PAGE) was added and mixed well, the precipitate was suspended and heated for 5 minutes at 95° C., and then poured into a PAG MINI “No. 1” 10/20 gel (Daiichi Pure Chemicals Co., Ltd) and electrophoresized for about 1 hour at 40 mA. After electrophoresis, the suspension was silver-stained using “Daiichi” 2D-silver staining reagent (Daiichi Pure Chemicals Co., Ltd), and washed and dried. Finally, the suspension was scanned (EPSON ES-8500 scanner: brand name) and analyzed (Image J software: brand name).
In this experiment, at a calcium concentration in the test tube of 10^−6 M, the amount of troponin I precipitated in the absence of the compound was set at 1.0. Relatively, the amount of co-precipitation in the presence of 10^−7, 10^−6 and 10^−5 M concentrations of the compound was 1.4, 3.4, and 5.4, respectively; therefore, it was confirmed that the amount of troponin I precipitate increased with an increase in the compound concentration. The actin used in this experiment was swine skeletal muscle-derived actin with a molecular weight of 43 kDa, and was purchased from SIGMA. Tropomyosin used in this experiment was gizzard-derived tropomyosin with a molecular weight of 36 kDa, and was purchased from SIGMA. Troponin I used in this experiment was human myocardium-derived troponin I with a molecular weight of 24 kDa, and was purchased from Calbiochem Inc. Troponin C used in this experiment was human myocardium recombinant-derived troponin C with a molecular weight of 18 kDa, and was purchased from Abcam PLC. These proteins were separated by SDS-polyacrylamide gel electrophoresis and each band was clearly identifiable. […]

[1] = Ca 10^−6 M, the compound 10^−5 M

Amount of precipitate of troponin I, Ratio (Ca 10^−8 M = 1.0) (Ca 10^−5 M, the compound 10^−5 M): 0.78
Amount of precipitate of troponin I, Ratio (Ca 10^−8 M = 1.0) [1]: 0.81
Amount of precipitate of troponin I, Ratio (no compound = 1.0) [1]: 5.4
Amount of precipitate of troponin I, Ratio (no compound = 1.0) (Ca 10^−6 M, the compound 10^−6 M): 3.4
Amount of precipitate of troponin I, Ratio (no compound = 1.0) (Ca 10^−6 M, the compound 10^−7 M): 1.4
Amount of precipitate of troponin I, Ratio (Ca 10^−8 M = 1.0) (Ca 10^−7 M, the compound 10^−5 M): 0.94
Amount of precipitate of troponin I, Ratio (Ca 10^−8 M = 1.0) (Ca 10^−8 M, the compound 10^−5 M (reference set at 1.0)): 1.0
Compound: COc1ccc2c(c1)CN(C(=O)CCN1CCC(Cc3ccccc3)CC1)CCS2 [the compound, 4-[3-(4-benzylpiperidine-1-yl)propionyl]-7-methoxy-2,3,4,5-tetrahydro-1,4-benzothiazepine]
